Read-outs that look alike come from different tables or passages of the source.
Experiments:
[1] = target: human orexin 1 receptor (Homo sapiens, UniProt O43613); assay: Human orexin 1 receptor radioligand binding; details: read-out: hOX1 Ki
Description: (§1) Data are analyzed using pc-Sandy macro and graphed on Graphpad Prism 5. For analysis, each concentration point is averaged from triplicate values and the averaged values are plotted on Graphpad Prism. The IC50 was determined by applying the following equation (GraphPad Prism 5.0, SanDiego) for one site competition where X=log (concentration) and Y=specific binding. Top denotes the total [^3H]-(1-(5-(2-fluoro-phenyl)-2-methyl-thiazol-4-yl)-1-((S)-2-(5-phenyl-(1,3,4)oxadiazol-2-ylmethyl)-pyrrolidin-1-yl)-methanone) binding, bottom denotes the nonspecific [^3H]-(1-(5-(2-fluoro-phenyl)-2-methyl-thiazol-4-yl)-1-((S)-2-(5-phenyl-(1,3,4)oxadiazol-2-ylmethyl)-pyrrolidin-1-yl)-methanone) binding. Graphpad Prism calculates Ki value from IC50 and the pre-determined Kd values for [^3H]-(1-(5-(2-fluoro-phenyl)-2-methyl-thiazol-4-yl)-1-((S)-2-(5-phenyl-(1,3,4)oxadiazol-2-ylmethyl)-pyrrolidin-1-yl)-methanone) and [3H]-EMPA. The Ki for each compound is then uploaded into 3DX. Each run comprises individual compounds in triplicate. The data in Table 1 and Table 2 represent averages from between 2-20 runs
(§2) Rat and Human Orexin 1 Receptor Radioligand Binding Studies
(§3) After centrifugation (2K×G, 5 min at 4° C.), the supernatant was aspirated and the pellets frozen and stored at −80° C. […] Each cell pellet from a 15 cm plate was resuspended in 10 mL, stored on ice, and homogenized for 45 sec prior to addition to the reactions. […] The final concentration of DMSO in the reactions is equal to or less than 0.1%. Total and nonspecific binding was determined in the absence and presence of 10 μM almorexant. The total volume of each reaction is 200 μL (20 μL of diluted compounds, 80 μL of [^3H]-(1-(5-(2-fluoro-phenyl)-2-methyl-thiazol-4-yl)-1-((S)-2-(5-phenyl-(1,3,4)oxadiazol-2-ylmethyl)-pyrrolidin-1-yl)-methanone) diluted in PBS and 100 μL of the cell suspension). […] The plates were washed 3 times by aspirating 30 ml PBS through the plates. Plates were dried in 55° C. oven for 60 min, scintillation fluid was added, and the radioactivity was counted on a Topcount (Packard).

[2] = target: rat orexin 1 receptor (Rattus norvegicus, UniProt P56718); assay: Rat orexin 1 receptor radioligand binding; details: read-out: rOX1 Ki
Description: as §1, §2, §3

[3] = target: human orexin 2 receptor (Homo sapiens (Human), UniProt O43614); assay: Human orexin 2 receptor radioligand binding; details: read-out: hOX2 Ki
Description: as §1
Human Orexin 2 Receptor Radioligand Binding Studies
as §3, with “HEK293 stably expressing human orexin 2 receptor (Genebank accession number NM_001526) were grown to confluency in DMEM (Hyclone, cat # SH30022), 10% FBS, 1× Pen/Strep, 1× NaPyruvate, 10 mM HEPES, 600 ug/ml G418 media on 150 cm^2 tissue culture plates, washed with 5 mM EDTA in PBS (HyClone Dulbecco's Phosphate Buffered Saline 1× with Calcium and Magnesium, Cat # SH30264.01, hereafter referred to simply as PBS) and scraped into 50 ml tubes. After” for “After”, “sec just” for “sec”, “[^3H]-EMPA” for “[^3H]-(1-(5-(2-fluoro-phenyl)-2-methyl-thiazol-4-yl)-1-((S)-2-(5-phenyl-(1,3,4)oxadiazol-2-ylmethyl)-pyrrolidin-1-yl)-methanone)”

[4] = human orexin 1 receptor, averages of 2-20 runs
[5] = rat orexin 1 receptor, averages of 2-20 runs
[6] = human orexin 2 receptor, averages of 2-20 runs

Sequence of human orexin 2 receptor (O43614 whole entry): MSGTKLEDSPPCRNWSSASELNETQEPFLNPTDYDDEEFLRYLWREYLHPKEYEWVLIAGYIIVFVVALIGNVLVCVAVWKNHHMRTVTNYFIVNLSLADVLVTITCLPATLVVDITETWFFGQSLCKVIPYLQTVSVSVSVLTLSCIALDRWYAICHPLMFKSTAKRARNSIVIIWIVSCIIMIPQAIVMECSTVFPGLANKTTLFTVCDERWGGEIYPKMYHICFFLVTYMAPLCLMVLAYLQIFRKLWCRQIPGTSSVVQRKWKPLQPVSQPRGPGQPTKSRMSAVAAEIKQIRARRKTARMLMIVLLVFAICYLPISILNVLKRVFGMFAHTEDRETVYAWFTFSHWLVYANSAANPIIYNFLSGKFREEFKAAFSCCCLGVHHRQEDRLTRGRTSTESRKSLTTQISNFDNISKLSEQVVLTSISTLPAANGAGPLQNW

Row | Structure (SMILES) | Ki [1, 4] | Ki [2, 5] | Ki [3, 6] | Ki [1] | Ki [2] | Ki [3]
1 | Cc1nc(C(=O)N2CC3CC(Oc4ccc(C(F)(F)F)cn4)C2C3)c(-c2ccc(F)cc2)s1 (racemic) [Example 5, (R/S)-(5-(4-fluorophenyl)-2-methylthiazol-4-yl)(6-((5-(trifluoromethyl)pyridin-2-yl)oxy)-2-azabicyclo[2.2.1]heptan-2-yl)methanone] | 18 nM | 25 nM | 779 nM |  |  | 
2 | Cc1cccc(C(=O)N2CC3CCC2C(Nc2cnc(C(F)(F)F)cn2)C3)c1-n1nccn1 (racemic) [Example 256, (R/S)-(3-methyl-2-(2H-1,2,3-triazol-2-yl)phenyl)(6-((5-(trifluoromethyl)pyrazin-2-yl)amino)-2-azabicyclo[2.2.2]octan-2-yl)methanone] | 10 nM | 20 nM | 348 nM |  |  | 
3 | O=C(c1cccc(F)c1-c1ncccn1)N1CC2CCC1C(Nc1cnc(C(F)(F)F)cn1)C2 (racemic) [Example 257, (R/S)-(3-fluoro-2-(pyrimidin-2-yl)phenyl)(6-((5-(trifluoromethyl)pyrazin-2-yl)amino)-2-azabicyclo[2.2.2]octan-2-yl)methanone] | 24 nM | 21 nM | 741 nM |  |  | 
4 | O=C(c1ccc(F)cc1-c1ncccn1)N1CC2CCC1C(Nc1cnc(C(F)(F)F)cn1)C2 (racemic) [Example 258, (R/S)-(4-fluoro-2-(pyrimidin-2-yl)phenyl)(6-((5-(trifluoromethyl)pyrazin-2-yl)amino)-2-azabicyclo[2.2.2]octan-2-yl)methanone] | 17 nM | 26 nM | 2600 nM |  |  | 
5 | O=C(c1cccc(F)c1-c1ncccn1)N1C[C@H]2C[C@@H](Oc3ccc(Br)cn3)[C@@H]1C2 [Example 48, ((1S,4R,6R)-6-((5-bromopyridin-2-yl)oxy)-2-azabicyclo[2.2.1]heptan-2-yl)(3-fluoro-2-(pyrimidin-2-yl)phenyl)methanone] | 5 nM | 4 nM | 903 nM |  |  | 
6 | O=C(c1ccccc1-n1nccn1)N1C[C@H]2C[C@@H](Oc3ccc(Br)cn3)[C@@H]1C2 [Example 49, (2-(2H-1,2,3-triazol-2-yl)phenyl)((1S,4R,6R)-6-((5-bromopyridin-2-yl)oxy)-2-azabicyclo[2.2.1]heptan-2-yl)methanone] | 5 nM |  | 443 nM |  |  | 
7 | Cc1ccc(-n2nccn2)c(C(=O)N2C[C@H]3C[C@@H](Oc4ccc(Br)cn4)[C@@H]2C3)n1 [Example 50, ((1S,4R,6R)-6-((5-bromopyridin-2-yl)oxy)-2-azabicyclo[2.2.1]heptan-2-yl)(6-methyl-3-(2H-1,2,3-triazol-2-yl)pyridin-2-yl)methanone] | 10 nM |  | 578 nM |  |  | 
8 | O=C(c1cc(F)ccc1-c1ncccn1)N1C[C@H]2C[C@@H](Nc3ccc(C(F)(F)F)cn3)[C@@H]1C2 [Example 58, (5-fluoro-2-(pyrimidin-2-yl)phenyl)((1S,4S,6R)-6-((5-(trifluoromethyl)pyridin-2-yl)amino)-2-azabicyclo[2.2.1]heptan-2-yl)methanone] | 3 nM | 5 nM | 193 nM |  |  | 
9 | O=C(c1ccccc1-n1nccn1)N1C[C@H]2C[C@@H](Nc3cnc(C(F)(F)F)cn3)[C@@H]1C2 [Example 59, (2-(2H-1,2,3-triazol-2-yl)phenyl)((1S,4S,6R)-6-((5-(trifluoromethyl)pyrazin-2-yl)amino)-2-azabicyclo[2.2.1]heptan-2-yl)methanone] | 7 nM |  | 192 nM |  |  | 
10 | O=C(c1ccccc1-n1nccn1)N1C[C@H]2C[C@@H](Nc3ncc(C(F)(F)F)cn3)[C@@H]1C2 [Example 60, (2-(2H-1,2,3-triazol-2-yl)phenyl)((1S,4S,6R)-6-((5-(trifluoromethyl)pyrimidin-2-yl)amino)-2-azabicyclo[2.2.1]heptan-2-yl)methanone] | 12 nM | 20 nM | 617 nM |  |  | 
11 | Cc1ccc(-n2nccn2)c(C(=O)N2C[C@H]3C[C@@H](Nc4cnc(C(F)(F)F)cn4)[C@@H]2C3)n1 [Example 61, (6-methyl-3-(2H-1,2,3-triazol-2-yl)pyridin-2-yl)((1S,4S,6R)-6-((5-(trifluoromethyl)pyrazin-2-yl)amino)-2-azabicyclo[2.2.1]heptan-2-yl)methanone] | 19 nM | 15 nM | 248 nM |  |  | 
12 | Cc1ccc(-n2nccn2)c(C(=O)N2C[C@H]3C[C@@H](Nc4ncc(C(F)(F)F)cn4)[C@@H]2C3)n1 [Example 62, (6-methyl-3-(2H-1,2,3-triazol-2-yl)pyridin-2-yl)((1S,4S,6R)-6-((5-(trifluoromethyl)pyrimidin-2-yl)amino)-2-azabicyclo[2.2.1]heptan-2-yl)methanone] | 19 nM | 28 nM | 569 nM |  |  | 
13 | O=C(c1cccc(F)c1-c1ncccn1)N1C[C@H]2C[C@@H](Nc3ccc(C(F)(F)F)cn3)[C@@H]1C2 [Example 66, (3-fluoro-2-(pyrimidin-2-yl)phenyl)((1S,4S,6R)-6-((5-(trifluoromethyl)pyridin-2-yl)amino)-2-azabicyclo[2.2.1]heptan-2-yl)methanone] | 5 nM | 2 nM | 181 nM |  |  | 
14 | O=C(c1cccc(F)c1-c1ncccn1)N1C[C@H]2C[C@@H](Nc3cnc(C(F)(F)F)cn3)[C@@H]1C2 [Example 67, (3-fluoro-2-(pyrimidin-2-yl)phenyl)((1S,4S,6R)-6-((5-(trifluoromethyl)pyrazin-2-yl)amino)-2-azabicyclo[2.2.1]heptan-2-yl)methanone] | 7 nM | 7 nM | 264 nM |  |  | 
15 | O=C(c1cccc(F)c1-c1ncccn1)N1C[C@H]2C[C@@H](Nc3ncc(C(F)(F)F)cn3)[C@@H]1C2 [Example 68, (3-fluoro-2-(pyrimidin-2-yl)phenyl)((1S,4S,6R)-6-((5-(trifluoromethyl)pyrimidin-2-yl)amino)-2-azabicyclo[2.2.1]heptan-2-yl)methanone] | 8 nM | 7 nM | 612 nM |  |  | 
16 | O=C(c1cccc(F)c1-c1ncccn1)N1C[C@@H]2CC[C@H]1[C@H](Oc1cnc(C(F)(F)F)cn1)C2 [Example 74, (3-fluoro-2-(pyrimidin-2-yl)phenyl)((1S,4R,6R)-6-((5-(trifluoromethyl)pyrazin-2-yl)oxy)-2-azabicyclo[2.2.2]octan-2-yl)methanone] | 16 nM | 16 nM | 1800 nM |  |  | 
17 | Cc1ccc(-n2nccn2)c(C(=O)N2C[C@@H]3CC[C@H]2[C@H](Oc2ccc(C(F)(F)F)cn2)C3)n1 [Example 76, (6-methyl-3-(2H-1,2,3-triazol-2-yl)pyridin-2-yl)((1S,4R,6R)-6-((5-(trifluoromethyl)pyridin-2-yl)oxy)-2-azabicyclo[2.2.2]octan-2-yl)methanone] |  |  |  | 3 nM | 4 nM | 211 nM
18 | Cc1ccc(-n2nccn2)c(C(=O)N2C[C@@H]3CC[C@H]2[C@H](Oc2cnc(C(F)(F)F)cn2)C3)n1 [Example 77, (6-methyl-3-(2H-1,2,3-triazol-2-yl)pyridin-2-yl)((1S,4R,6R)-6-((5-(trifluoromethyl)pyrazin-2-yl)oxy)-2-azabicyclo[2.2.2]octan-2-yl)methanone] | 13 nM | 9 nM | 1700 nM |  |  | 
19 | O=C(c1cccnc1-n1nccn1)N1C[C@H]2C[C@@H](Oc3ccc(C(F)(F)F)cn3)[C@@H]1C2 [Example 87, (2-(2H-1,2,3-triazol-2-yl)pyridin-3-yl)((1S,4R,6R)-6-((5-(trifluoromethyl)pyridin-2-yl)oxy)-2-azabicyclo[2.2.1]heptan-2-yl)methanone] | 211 nM | 156 nM | > 10000 nM |  |  | 
